One assay relates to IL6. Briefly: In vitro immunomodulatory assay, IL6 (ELISA) in HCT-116 cells. In kind it is cell-based. To be noted: C-6 (21.8 µM), D-1 (3.08 µM), 48 h. The procedure: (§1) Compounds C-6 and D-1 were further assayed for their immunomodulatory effect on HCT-116 cells. Two immunity-related markers were measured namely, human tumour necrosis factor alpha (TNF-α), and interleukin 6 (IL6). Dexamethasone, a potent inhibitor of both TNF-α and IL6, was used as a positive control.
(§2) The level of TNF-α and IL6 in cell culture supernatants was assessed by the ELISA technique according to the reported procedure[50]^,[51].
For orientation: An ELISA detects its analyte on a solid surface through an enzyme-linked reagent.

Assay [1] deals with HCT-116 cells. Briefly: In vitro anti-proliferative activity, MTT test, HCT-116. The format is cell-based. To be noted: Homo sapiens, read-out: In vitro cytotoxicity IC50 HCT-116. The procedure:
(§3) The in vitro anti-proliferative effects of the four synthesised members were assessed against two cancer cell lines namely, hepatocellular carcinoma (HepG-2) and colorectal carcinoma (HCT-116) cell lines, by the standard MTT test[29]. HepG-2 and HCT-116 cell lines were precisely selected relying on their VEGF overexpression. […] The cytotoxicity results were established in Table 7.
(§4) The anti-proliferative activity of the four members was estimated by the MTT protocol as described[38–41] (Supplementary data).
(In general: Tetrazolium dyes change colour on reduction, which living cells bring about.)

Another assay relates to TNF-α. Briefly: In vitro immunomodulatory assay, TNF-α (ELISA) in HCT-116 cells. In kind it is cell-based, human. The settings on record: C-6 (21.8 µM), D-1 (3.08 µM), 48 h. As for the experimental part:
as §1, §2

A further assay deals with HepG-2 cells. Briefly: In vitro anti-proliferative activity, MTT test, HepG-2. To be noted: for IC50: Homo sapiens, HepG2, MTT, HepG-2, read-out: In vitro cytotoxicity IC50 HepG-2. The format is cell-based. As for the experimental part: as §3, §4
The test system of another assay is BAX. Briefly: BAX level in treated HCT-116 cells. In kind it is cell-based. As for the experimental part:
(§5) Upregulation of the proapoptotic genes in addition to the downregulation of the anti-apoptotic ones, thus, confirmed the apoptotic behaviour of the designed compound.
(§6) Estimation of caspase-3 levels after treatment of cells with compound D-1 was performed according to the protocol described by M. Andersson et al.[42]. While Bax and Bcl-2 cellular levels were evaluated for D-1 in HCT-116 cells according to the reported protocol[43] (Supplementary data).

Assay [2] concerns HCT-116 cells. Briefly: Cell cycle analysis by flow cytometry in HCT-116 cells. The format is cell-based. The settings on record: HCT-116, 3.08 µM for 48 h. From the text:
Aiming to obtain a further understanding of the mechanism that triggers the anticancer activity of D-1, the cell cycle progression was investigated using flow cytometry in HCT-116 cells.
Based on the protocol referred to by Léonce et al., the flow cytometric analysis for congener D-1 was done[19]^,[44–46] (Supplementary data).
(Flow cytometry measures light scatter and fluorescence of single cells or particles in a stream.)

The next assay has as its target T1, VEGFR-2 (Homo sapiens, UniProt P35968).
T1 construct: in vitro investigation against VEGFR-2 in HCT-116 cells; endogenous in cells; host or cells: HCT-116
In words: Assessment of VEGFR-2 inhibition in HCT-116 cells. The format is cell-based. The settings on record: HCT-116 cells treated at concentrations equal to the cytotoxic ones; read-out: VEGFR-2 protein concentration (called VEGFR-2 inhibitory IC50 in text). An excerpt:
The designed congeners were, also, subject to an in vitro investigation against VEGFR-2 in HCT-116 cells.
The four selected members were further assessed to measure their inhibitory activities against the VEGFR-2 enzyme following the protocol shown in Supplementary data.

In the next assay the test system is Bcl-2. In words: Bcl-2 level in treated HCT-116 cells. In kind it is cell-based. The procedure: as §5, §6
In a further assay the test system is caspase-8. Briefly: Caspase-8 concentration in treated HCT-116 cells. The format is cell-based.
Assay [3] concerns HCT-116 cells. In words: Annexin-V/propidium iodide apoptosis assay in HCT-116 cells. To be noted: HCT-116, 3.08 µM for 48 h. In kind it is cell-based. The procedure: Since the induction of apoptosis is a key determinant in the drug’s therapeutic outcome, the ability of the best cytotoxic member D-1 to induce apoptosis in colorectal carcinoma (HCT-116) cells was evaluated using Annexin-V/propidium iodide (PI) staining assay. […] The percentage of early and late apoptotic populations elevated from 0.7% and 1.73% in the untreated cells to 4.36% and 17.62% in the D-1 treated cells (Table 10 and Figures 11 and 12).
Annexin‐V‐FITC assay for compound D-1 on HCT-116 cells according to the reported procedure[15]^,[47–49] (Supplementary data).

T1 sequence (P35968 20-1356): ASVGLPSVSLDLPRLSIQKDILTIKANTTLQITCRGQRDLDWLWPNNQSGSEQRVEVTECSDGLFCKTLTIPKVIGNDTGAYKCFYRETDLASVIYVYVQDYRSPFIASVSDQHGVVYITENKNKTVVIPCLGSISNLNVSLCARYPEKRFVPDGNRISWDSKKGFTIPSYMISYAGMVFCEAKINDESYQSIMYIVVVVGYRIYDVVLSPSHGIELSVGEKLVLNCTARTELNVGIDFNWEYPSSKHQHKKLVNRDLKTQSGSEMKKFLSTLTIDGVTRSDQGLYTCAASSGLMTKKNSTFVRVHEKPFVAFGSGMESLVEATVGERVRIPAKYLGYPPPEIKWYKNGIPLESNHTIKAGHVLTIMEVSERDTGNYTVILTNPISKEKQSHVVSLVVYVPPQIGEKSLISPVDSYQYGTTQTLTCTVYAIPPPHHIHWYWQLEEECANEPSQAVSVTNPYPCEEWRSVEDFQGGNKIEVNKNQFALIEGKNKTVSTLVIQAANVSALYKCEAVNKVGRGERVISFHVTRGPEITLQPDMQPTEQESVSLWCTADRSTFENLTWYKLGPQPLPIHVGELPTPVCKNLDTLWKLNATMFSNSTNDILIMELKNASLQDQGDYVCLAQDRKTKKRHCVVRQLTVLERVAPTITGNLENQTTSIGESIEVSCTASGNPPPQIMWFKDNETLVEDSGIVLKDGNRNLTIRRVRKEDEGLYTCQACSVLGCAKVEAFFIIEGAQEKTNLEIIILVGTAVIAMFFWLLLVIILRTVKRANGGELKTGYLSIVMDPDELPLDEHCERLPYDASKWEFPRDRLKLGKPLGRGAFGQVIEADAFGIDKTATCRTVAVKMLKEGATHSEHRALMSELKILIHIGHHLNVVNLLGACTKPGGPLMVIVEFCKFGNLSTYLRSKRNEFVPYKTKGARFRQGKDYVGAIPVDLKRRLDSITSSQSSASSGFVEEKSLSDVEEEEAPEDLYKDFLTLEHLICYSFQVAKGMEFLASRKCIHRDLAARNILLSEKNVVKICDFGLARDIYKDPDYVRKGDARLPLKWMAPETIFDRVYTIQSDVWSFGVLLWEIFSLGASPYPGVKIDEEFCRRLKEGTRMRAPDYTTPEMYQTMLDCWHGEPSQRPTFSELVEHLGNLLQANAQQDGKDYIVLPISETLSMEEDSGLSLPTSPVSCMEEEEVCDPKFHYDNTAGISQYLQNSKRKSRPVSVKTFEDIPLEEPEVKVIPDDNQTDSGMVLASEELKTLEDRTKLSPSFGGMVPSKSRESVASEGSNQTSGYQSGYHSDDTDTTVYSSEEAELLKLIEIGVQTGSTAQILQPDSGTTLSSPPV

Regarding `CC(=NNc1ccccc1)c1ccc(NC(=O)c2cccnc2)cc1` [Compound D-1, N-(4–(1-(2-Phenylhydrazineylidene)ethyl)phenyl)nicotinamide], the “% Inhibition of IL6” value in the assay with IL6 is recorded as 85.64%. Besides, the IC50 in the assay on HCT-116 cells [1] was found to be 3.08 ± 0.002 µM. Also, the “% Inhibition of TNF-α” value with TNF-α stood at 91.19%. The IC50 with HepG-2 cells worked out at 4.09 ± 0.005 µM. For the same compound, the “activity against HepG-2, fold more than sorafenib” value with HepG-2 cells (ratio of IC50 values versus sorafenib) was “about 1.2 fold”. Besides, the “increase of BAX expression level” value in the assay on BAX (HCT-116 cells, versus control) is on record as 9.52 fold. For the same compound, the BAX with BAX (treated HCT-116 cells) is 401.79 pg/mL. In addition, in the assay on HCT-116 cells [2], the “%G0-G1” value was 41.26%, the “%G2-M” value amounted to 30.37%, the “%Pre-G1” value turned out to be 23.68% and the “%S” value was 28.37%. Besides, the IC50 at VEGFR-2 worked out at 23.1 nM. For the same compound, the “decrease of Bcl-2 level to” value in the assay with Bcl-2 (HCT-116 cells, versus control) was found to be 0.23 fold. For the same compound, the Bcl-2 with Bcl-2 (treated HCT-116 cells) turned out to be 1.274 pg/mL. Further, the “increase of caspase-8 level” value in the assay with caspase-8 (HCT-116 cells, versus control) was 10.41 fold. Also, in the assay on caspase-8 (treated HCT-116 cells), the Caspase-8 amounted to 523.61 pg/mL. Besides, in the assay with HCT-116 cells [3] (% given in Figure 11), the “Apoptosis Early” value amounted to 4.36%, the “Apoptosis Late” value is reported as 17.62% and the “Apoptosis Total” value was 23.68%. The Necrosis in the assay with HCT-116 cells [3] (% printed in Figure 11) is on record as 1.7%.

Take `C[C@@H]1C[C@H]2[C@@H]3CCC4=CC(=O)C=C[C@]4(C)[C@@]3(F)[C@@H](O)C[C@]2(C)[C@@]1(O)C(=O)CO` [Dexamethasone, reference compound]: the “% Inhibition of IL6” value in the assay with IL6 worked out at 93.15%. Moreover, in the assay with TNF-α, the “% Inhibition of TNF-α” value was determined as 82.47%.

Turning to `CC(=NO)c1ccc(NC(=O)c2cccnc2)cc1` [Compound C-6, N-(4–(1-(Hydroxyimino)ethyl)phenyl)nicotinamide], in the assay on IL6, the “% Inhibition of IL6” value is 75.21%. The IC50 in the assay on HCT-116 cells [1] was 21.8 ± 0.057 µM; in the assay on HepG-2 cells, 15.9 ± 0.045 µM; at VEGFR-2 it was 15.7 nM. The “% Inhibition of TNF-α” value in the assay with TNF-α worked out at 86.48%.

In the case of `CC(=NNC(=O)c1ccccc1)c1ccc(NC(=O)c2cccnc2)cc1` [Compound B-1, N-(4–(1-(2-Benzoylhydrazineylidene)ethyl)phenyl)nicotinamide], the IC50 with HCT-116 cells [1] is 19.6 ± 0.052 µM; in the assay with HepG-2 cells, 17.4 ± 0.05 µM; at VEGFR-2 it was 80 nM.

For the compound `CNC(=O)c1cc(Oc2ccc(NC(=O)Nc3ccc(Cl)c(C(F)(F)F)c3)cc2)ccn1` [Sorafenib, sorafenib, reference compound], the IC50 with HCT-116 cells [1] worked out at 7.28 ± 0.58 µM; with HepG-2 cells, 5.28 ± 0.21 µM.

Turning to `CC(=NNC(=O)c1cccnc1)c1ccc(NC(=O)c2cccnc2)cc1` [Compound A-1, N-(4–(1-(2-Nicotinoylhydrazineylidene)ethyl)phenyl)nicotinamide], the IC50 was 34.9 ± 0.084 µM in the assay with HCT-116 cells [1], 18.07 ± 0.052 µM in the assay with HepG-2 cells and 22.1 nM at VEGFR-2.

The values above are taken from publication PMC9116259, “Discovery of new nicotinamides as apoptotic VEGFR-2 inhibitors: virtual screening, synthesis, anti-proliferative, immunomodulatory, ADMET, toxicity, and molecular dynamic simulation studies” (Journal of Enzyme Inhibition and Medicinal Chemistry, 2022).
